Assay results: patent US7524844B2, “Dipeptidyl peptidase IV inhibitors, process for their preparation and compositions containing them” (Glenmark Pharmaceuticals S.A., priority 2004, dated 2009)

target: T1, human recombinant Dipeptidyl peptidase IV enzyme (DPP-IV) (Homo sapiens, UniProt P27487); test: in-vitro DPP-IV assay (cleavage of AMC from Gly-Pro-AMC); type: biochemical; settings: at 300 nM; printed in the IC50 (nM) column; read-out: DPP-IV inhibition using human recombinant DPP-IV enzyme, percent inhibition
T1 construct: purchased R&D Systems Inc. of Minneapolis, Minn
T1 sequence (P27487 whole entry): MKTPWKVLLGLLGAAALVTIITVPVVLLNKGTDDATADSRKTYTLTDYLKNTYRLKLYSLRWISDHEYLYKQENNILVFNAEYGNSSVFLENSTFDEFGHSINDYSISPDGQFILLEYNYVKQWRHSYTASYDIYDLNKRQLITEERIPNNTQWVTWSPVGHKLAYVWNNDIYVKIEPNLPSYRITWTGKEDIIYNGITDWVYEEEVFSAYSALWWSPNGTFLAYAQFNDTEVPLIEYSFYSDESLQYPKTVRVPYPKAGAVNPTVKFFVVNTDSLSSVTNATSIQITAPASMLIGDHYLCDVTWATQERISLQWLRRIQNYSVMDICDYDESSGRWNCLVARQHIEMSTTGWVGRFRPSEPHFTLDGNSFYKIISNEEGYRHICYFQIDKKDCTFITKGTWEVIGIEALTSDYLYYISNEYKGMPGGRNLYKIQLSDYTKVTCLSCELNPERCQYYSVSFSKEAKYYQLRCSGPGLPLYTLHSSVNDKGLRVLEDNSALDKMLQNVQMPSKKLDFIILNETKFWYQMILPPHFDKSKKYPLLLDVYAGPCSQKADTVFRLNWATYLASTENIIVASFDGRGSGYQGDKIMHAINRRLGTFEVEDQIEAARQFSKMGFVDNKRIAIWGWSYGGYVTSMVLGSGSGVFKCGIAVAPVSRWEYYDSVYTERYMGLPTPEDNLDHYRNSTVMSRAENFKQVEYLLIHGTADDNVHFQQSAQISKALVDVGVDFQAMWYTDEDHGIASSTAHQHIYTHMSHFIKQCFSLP
Experimental: DPP-IV activity was determined by the cleavage rate of 7-amino-4-methyl coumarin (AMC) from the synthetic substrate Glycyl-Prolyl-AMC. In brief, the assay was conducted by adding 10 ng of human recombinant Dipeptidyl peptidase IV enzyme (DPP-IV, available commercially from R&D Systems Inc. of Minneapolis, Minn.) in 50 μl of the assay buffer (25 mM Tris, pH 7.4, 140 mM NaCl, 10 mM KCl, 1% BSA) to 96 well black flat bottom microtiter plates. The reaction was initiated by adding 50 μl of 100 μM substrate Gly-Pro-AMC. The incubation was carried out in the kinetic mode at 30° C. for 30 minutes. Fluorescence was measured using Fluorostar with an excitation filter of 380 nm and emission filter of 460 nm. Test compounds and solvent controls were added as 1 μl additions. A standard curve of free amino methyl coumarin (AMC) was generated using 0-100 μM AMC in the assay buffer. The curve generated, which was linear was used for the interpolation of catalytic activity.
Test compounds dissolved in DMSO at 5-6 concentrations were tested in duplicate along with the solvent control and blank samples. Percent inhibition was calculated at each concentration with respect to the solvent control sample (no test compound added). […]

| SMILES | inhibition at 0.3 µM |
| --- | --- |
| N#C[C@@H]1CCCN1C(=O)CNC1CCC(C(=O)Nc2cc(F)c(F)cc2F)C1 (mixture of isomers) [Example 74, 1-((1SR,3RS)-3-{2-[(2S)-2-Cyanopyrrolidine-1-yl]-2-oxoethylamino}cyclopentyl-carboxamido)-2,4,5-trifluorobenzene] | 2% |
| O=C(CN[C@H]1CCC(Cn2cncn2)C1)N1CC[C@H](F)C1 (stereo in doubt) [Example-55, 1-[(3S)-3-Fluoropyrrolidin-1-yl]-2-[(1S,3S)-3-(1H-1,2,4-Triazol-1-ylmethyl)cyclo-pentylamino]-1-ethanone] | 0% |

same assay, conditions: human recombinant DPP-IV, Gly-Pro-AMC substrate, 30° C., 30 minutes; read-out: DPP-IV inhibition using human recombinant DPP-IV enzyme, IC50

| SMILES | IC50 |
| --- | --- |
| N#CC1CCC(NCC(=O)N2CCC[C@H]2C#N)C1 (mixture of isomers) [Example 2, (2S)-1-{2-[(3SR,1RS)-3-Cyanocyclopentylamino]acetyl}-2-pyrrolidinecarbonitrile] | 286 nM |
| N#C[C@@H]1CCCN1C(=O)CNC1CCC(C(N)=O)C1 (mixture of isomers) [Example-1, (1SR,3RS)-3-{2-[(2S)-2-Cyanopyrrolidin-1-yl]-2-oxoethylamino}cyclopentane-1-carboxamide] | 163 nM |
| N#CCC1CCC(NCC(=O)N2CCC[C@H]2C#N)C1 (mixture of isomers) [Example-3, (2S)-1-{2-[(3SR,1RS)-3-Cyanomethylcyclopentylamino]acetyl}-2-pyrrolidine carbonitrile] | 26.8 nM |
| N#C[C@@H]1CCCN1C(=O)CNC1CCC(CN2CCC[C@H]2C(N)=O)C1 (mixture of isomers) [Example-10, (2S)-1-((1SR,3RS)-3-{2-[(2S)-2-Cyanopyrrolidin-1-yl]-2-oxoethylamino}cyclopentyl-methyl)pyrrolidine-2-carboxamide] | 64.4 nM |
| N#C[C@@H]1CCCN1C(=O)CNC1CCC(C(=O)NOCc2ccccc2)C1 (mixture of isomers) [Example-12, N1-Benzyloxy-(1SR,3RS)-3-{2-[(2S)-2-cyanopyrrolidin-1-yl]-2-oxoethylamino}-cyclopentane-1-carboxamide] | 145 nM |
| CN1CCN(CC2CCC(NCC(=O)N3CCC[C@H]3C#N)C2)CC1 (mixture of isomers) [Example-20, (2S)-1-{2-[(3SR,1RS)-3-(4-Methylpiperazinomethyl)cyclopentylamino]acetyl}-pyrrolidine-2-carbonitrile] | 123 nM |
| N#CC1CCN(C[C@H]2CC[C@@H](NCC(=O)N3CCC[C@H]3C#N)C2)CC1 (mixture of isomers) [Example-21, (2S)-1-{2-[(3SR,1RS)-3-(4-Cyanopiperidinylmethyl)cyclopentylamino]acetyl}-pyrrolidine-2-carbonitrile] | 33 nM |
| N#Cc1cccn1CC1CCC(NCC(=O)N2C[C@@H](F)C[C@H]2C#N)C1 (mixture of isomers) [Example-27, (2S,4S)-1-{2-[(3SR,1RS)-3-(2-Cyano-1H-pyrrol-1-ylmethyl)cyclopentylamino)-acetyl}-4-fluoropyrrolidine-2-carbonitrile] | 3.44 nM |
| CCCCc1nc(Cl)c(CO)n1CC1CCC(NCC(=O)N2CCC[C@H]2C#N)C1 (mixture of isomers) [Example-31, (2S)-1-{2-[(3SR,1RS)-3-(2-Butyl-4-chloro-5-hydroxymethyl-1H-1-imidazolylmethyl)-cyclopentylamino]acetyl}pyrrolidine-2-carbonitrile] | 10.1 nM |
| CCCCc1nc(Cl)c(C#N)n1CC1CCC(NCC(=O)N2CCC[C@H]2C#N)C1 (mixture of isomers) [Example-32, 2-n-Butyl-4-chloro-1-((1SR,3RS)-3-{2-[(2S)-2-cyanopyrrolidin-1-yl]-2-oxoethyl-amino}cyclopentylmethyl)-1H-5-imidazolecarbonitrile] | 3.46 nM |
| N#Cc1ncn(CC2CCC(NCC(=O)N3CCC[C@H]3C#N)C2)c1C#N (mixture of isomers) [Example-33, 1-((1SR,3RS)-3-{2-[(2S)-2-Cyanopyrrolidin-1-yl]-2-oxoethylamino}cyclopentyl-methyl)-1H-4,5-imidazoledicarbonitrile] | 5.05 nM |
| N#C[C@@H]1CCCN1C(=O)CNC1CCC(Cn2cncn2)C1 (mixture of isomers) [Example-36, (2S)-1-{2-[(3SR,1RS)-3-(1H-1,2,4-Triazol-1-ylmethyl)cyclopentylamino]acetyl}-pyrrolidine-2-carbonitrile] | 6 nM |
| N#C[C@@H]1C[C@H](F)CN1C(=O)CNC1CCC(Cn2cncn2)C1 (mixture of isomers) [Example-41, (2S,4S)-1-{2-[(3SR,1RS)-3-(1H-1,2,4-Triazol-1-ylmethyl)cyclopentylamino]acetyl}-4-fluoropyrrolidine-2-carbonitrile] | 4.44 nM |
| N#C[C@@H]1CCCN1C(=O)CNC1CCC(C(=O)NC23CC4CC(CC(C4)C2)C3)C1 (mixture of isomers) [Example 72, 1-((1SR,3RS)-3-{2-[(2S)-2-Cyanopyrrolidin-1-yl]-2-oxoethylamino}cyclopentyl-carboxamido)adamantine] | 209 nM |
| N#C[C@@H]1CCCN1C(=O)CNC1CCC(C(=O)Nc2cc(F)ccc2F)C1 (mixture of isomers) [Example 73, 1-((1SR,3RS)-3-{2-[(2S)-2-Cyanopyrrolidin-1-yl)-2-oxoethylamino}cyclopentyl-carboxamido)-2,5-difluorobenzene] | 49.2 nM |
| N#C[C@@H]1CCCN1C(=O)CNC1CCC(C(=O)Nc2ccccc2-c2ccccc2)C1 (mixture of isomers) [Example 75, 1-((1SR,3RS)-3-{2-[(2S)-2-Cyanopyrrolidin-1-yl)-2-oxoethylamino}cyclopentyl-carboxamido)-2-phenylbenzene] | 252 nM |
| N#C[C@@H]1CCCN1C(=O)CNC1CCC(C(=O)N2CCC[C@H]2C#N)C1 (mixture of isomers) [Example-11] | 103 nM |
| N#C[C@@H]1CCCN1C(=O)CNC1CCC(CN2CCSC2)C1 (mixture of isomers) [Example-17] | 288 nM |
| N#C[C@@H]1CCCN1C(=O)CNC1CCC(CN2CCN(Cc3ccccc3)CC2)C1 (mixture of isomers) [Example-22, (2S)-1-{2-1[(3SR,1RS)-3-(4-Benzylpiperazinomethyl)cyclopentylamino]acetyl}-pyrrolidin-2-carbonitrile] | 25.4 nM |
| N#C[C@@H]1CCCN1C(=O)CNC1CCC(Cn2cnc([N+](=O)[O-])c2)C1 (mixture of isomers) [Example-30, (2S)-1-{2-[(3SR,1RS)-3-(1H-4-Nitro-1-imidazolylmethyl)cyclopentylamino]acetyl}-pyrrolidine-2-carbonitrile] | 6.88 nM |
| N#CC[C@H]1CC[C@@H](NCC(=O)N2CCC[C@H]2C#N)C1 [Example-4, (2S)-1-{2-[(3S,1R)-3-Cyanomethylcyclopentylamino]acetyl}-2-pyrrolidinecarbo-nitrile] | 22.2 nM |
| N#CC[C@@H]1CC[C@H](NCC(=O)N2CCC[C@H]2C#N)C1 [Example-6, (2S)-1-{2-[(3R,1S)-3-Cyanomethylcyclopentylamino]acetyl}-2-pyrrolidinecarbo nitrile] | 21.8 nM |
| N#CC[C@H]1CC[C@@H](NCC(=O)N2C[C@@H](F)C[C@H]2C#N)C1 [Example-7, (2S,4S)-1-{2-[(3S,1R)-3-Cyanomethylcyclopentylamino]acetyl}-4-fluoro-2-pyrrol-idinecarbonitrile] | 4.29 nM |
| N#CC[C@@H]1CC[C@H](NCC(=O)N2C[C@@H](F)C[C@H]2C#N)C1 [Example-8, (2S,4S)-1-{2-1[(3R,1S)-3-Cyanomethylcyclopentylamino]acetyl}-4-fluoro-2-pyrro-idinecarbonitrile] | 4.36 nM |
